The values below come from US9624238B2, “4H-thieno[3,2-C]chromene-based inhibitors of Notum Pectinacetylesterase and methods of their use” (Lexicon Pharmaceuticals, Inc., priority 2011, dated 2017).

Assay [1] deals with T1, human notum pectinacetyltransferase (Homo sapiens, UniProt Q6P988).
T1 construct: made in house; unpurified conditioned medium used
T1 sequence (Q6P988 20-496): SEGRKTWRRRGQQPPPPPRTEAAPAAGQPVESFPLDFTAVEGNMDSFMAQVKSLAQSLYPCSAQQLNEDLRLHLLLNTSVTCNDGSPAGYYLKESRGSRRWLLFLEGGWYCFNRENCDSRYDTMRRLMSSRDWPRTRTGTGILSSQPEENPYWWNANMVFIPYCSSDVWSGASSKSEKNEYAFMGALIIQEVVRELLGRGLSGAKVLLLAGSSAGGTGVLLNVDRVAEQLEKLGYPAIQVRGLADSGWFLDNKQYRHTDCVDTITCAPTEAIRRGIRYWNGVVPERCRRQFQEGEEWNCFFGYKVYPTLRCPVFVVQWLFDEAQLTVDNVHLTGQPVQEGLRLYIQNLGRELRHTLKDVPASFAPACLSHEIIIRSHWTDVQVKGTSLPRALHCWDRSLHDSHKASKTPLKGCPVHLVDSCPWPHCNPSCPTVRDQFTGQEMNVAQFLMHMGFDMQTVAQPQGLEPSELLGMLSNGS
The assay is described as follows: Binding assay (OPTS esterase substrate, fluorimetric). Type of assay: biochemical. The conditions noted are these: class symbols. The method, then: Plasmid containing human notum pectinacetyltransferase in pcDNA3.1(+) vector was transfected into HEK (293 cells and clones were selecting by growing in presence of 400 ug/mL of G418. Condition media from these cells was used for the assay.

Assay [2] has as its target T1, human notum pectinacetyltransferase. Kind of assay: Reporter assay (CellSensor LEF/TCF-bla FreeStyle 293F cells, Wnt3a and notum conditioned media). As to conditions: class symbols. Type of assay: cell-based. The method, then: Plasmid containing human notum pectinacetyltransferase in pcDNA3.1(+) vector was transfected into HEK (293 cells and clones were selecting by growing in presence of 400 ug/mL of G418. The clone containing highest expression of human notum pectinacetyltransferase in the conditioned media was maintained for all future activity assays. L cells overexpressing and secreting Wnt3a into the conditioned media were purchased from ATCC.
The assay protocol was as follows. […] The cell growth medium consisted of DMEM with 10% Dialyzed FBS, 5 μg/ml Blasticidin (Invitrogen, R210-01), 0.1 mM NEAA, 25 mM HEPES and 1×GPS. Cells were then trypsinized by first rinsing with PBS, followed by addition of 5 mL of trypsin and incubation of plates at room temperature for two minutes. A total of 10 mL of assay media (Opti-MEM, plus 0.5% dialyzed FBS, 0.1 mM NEAA, 1 mM sodium pyruvate, 10 mM HEPES, 1×GPS) was then added per 15 cm plate. Cells were counted and suspended at 0.75 million cells per mL. […] After incubation of cells at 37° C. for 3 hours, 10 μL of 30 mM LiCl in assay medium was added per well, followed by incubation at 37° C. for another 3 hours. […] Ten μL of the Wnt3a/notum pentinacetyltransferase mixture was then transferred from Greiner plates to each well of the 384-well plates containing the CellSensor cells.

As for `COc1ccccc1C1CN(C(=O)c2cc3c(s2)-c2ccc(Cl)c(F)c2OC3)CC1C(=O)O` (stereo not shown), the IC50 – broadly, the concentration needed to halve the response being measured – in assay [1] is less than 1 µM. The EC50 (in general, the concentration needed to bring the measured effect to its halfway point) in assay [2] is less than 0.05 µM.

Take `N#CC1CCN(C(=O)c2cc3c(s2)-c2ccc(Cl)c(F)c2OC3)C1` (stereo not shown): the IC50 in assay [1] was less than 1 µM. Moreover, the EC50 in assay [2] is less than 0.05 µM.

Regarding `CCC1Cc2cc(C(N)=O)sc2-c2c(F)ccc(F)c21` (stereo not shown), the IC50 in assay [1] was less than 0.05 µM. Besides, the EC50 in assay [2] was less than 0.05 µM.

With `CCC1Cc2cc(C(=O)O)sc2-c2c(F)ccc(F)c21` (stereo not shown), the IC50 in assay [1] is less than 1 µM. This compound registered an EC50 in assay [2] of less than 0.05 µM.

The compound `CC1Cc2cc(C(=O)O)sc2-c2ccccc21` (stereo not shown) had an IC50 in assay [1] of less than 1 µM. In assay [2], this compound registered an EC50 of less than 0.05 µM.

`NC(=O)c1cc2c(s1)-c1cccc(Cl)c1OC2` displayed a half-maximal inhibitory concentration (IC50) in assay [1] of less than 1 µM. The EC50 in assay [2] was less than 0.05 µM.

The compound `N#Cc1cccc2c1CCc1cc(C(N)=O)sc1-2` gave an IC50 in assay [1] of less than 1 µM. Further, the EC50 in assay [2] was less than 0.05 µM.

In the case of `NC(=O)c1cc2c(s1)-c1cccc(F)c1OC2`, the IC50 in assay [1] is less than 0.05 µM. Moreover, the EC50 in assay [2] was less than 0.05 µM.

In turn, `Cc1ccc2c(c1F)OCc1cc(C(=O)O)sc1-2` came in with a 50% inhibitory concentration (IC50) in assay [1] of less than 1 µM. Also, the EC50 in assay [2] was less than 0.05 µM.

`Cc1cccc2c1OCc1cc(C(N)=O)sc1-2` yielded an IC50 in assay [1] of less than 1 µM. For the same compound, the concentration for a half-maximal effect (EC50) in assay [2] was less than 0.05 µM.

In assay [1], `NC(=O)c1cc2c(s1)-c1cc(F)cc(F)c1OC2` came in with an IC50 of less than 0.05 µM. In addition, the EC50 in assay [2] is less than 0.05 µM.

As to `CC1(C)Oc2c(F)cc(F)cc2-c2sc(C(N)=O)cc21`, the IC50 in assay [1] is less than 1 µM. This compound had a 50% effective concentration (EC50) in assay [2] of less than 0.5 µM.

With `Cc1cc(C)c2c(c1)-c1sc(C(N)=O)cc1CO2`, the IC50 in assay [1] was less than 2 µM. Further, the EC50 in assay [2] was less than 0.05 µM.

Turning to `Cc1cc(C)c2c(c1)-c1sc(C(=O)O)cc1CO2`, the IC50 in assay [1] is less than 1 µM. In assay [2], this compound showed an EC50 of less than 0.05 µM.

Regarding `CC1(C)Cc2cc(C(=O)O)sc2-c2c(F)ccc(F)c21`, in assay [1], the IC50 is less than 1 µM. In assay [2], the EC50 is less than 0.05 µM.

The compound `O=C(O)c1cc2c(s1)-c1ccc(C(F)(F)F)cc1OC2` had an IC50 in assay [1] of less than 1 µM. In assay [2], the EC50 was less than 0.05 µM.

As for `O=C(O)c1cc2c(s1)-c1ccc(Br)cc1CC2`, the IC50 in assay [1] is less than 1 µM. In assay [2], this compound displayed an EC50 of less than 0.05 µM.

For the compound `O=C(O)c1cc2c(s1)-c1ccc(F)cc1SC2`, the IC50 in assay [1] is less than 1 µM. For the same compound, in assay [2], the EC50 is less than 0.05 µM.

In turn, `Cc1cc2c(cc1C)-c1sc(C(=O)O)cc1CO2` returned an IC50 in assay [1] of less than 1 µM. This compound gave an EC50 in assay [2] of less than 0.05 µM.

In assay [1], `Cc1cc(C)c2c(c1)OCc1cc(C(N)=O)sc1-2` had an IC50 of less than 2 µM. Also, the EC50 in assay [2] is less than 0.05 µM.

As to `Cc1cc2c(cc1Cl)-c1sc(C(=O)O)cc1CO2`, the IC50 in assay [1] is less than 1 µM. The compound further came in with an EC50 in assay [2] of less than 0.05 µM.

For the compound `CC1Oc2ccc(F)cc2-c2sc(C(N)=O)cc21` (stereo not shown), the IC50 in assay [1] was less than 0.1 µM. Also, the EC50 in assay [2] is less than 0.05 µM.

Compound `NC(=O)c1cc2c(s1)-c1cc(F)ccc1OC2` came in with an IC50 in assay [1] of less than 0.05 µM. The compound further showed an EC50 in assay [2] of less than 0.05 µM.

Regarding `CC1Cc2cc(C(N)=O)sc2-c2cc(F)ccc21` (stereo not shown), in assay [1], the IC50 is less than 0.05 µM. Besides, the EC50 in assay [2] was less than 0.05 µM.

In assay [1], `Cc1cc(F)cc2c1OCc1cc(C(=O)O)sc1-2` showed an IC50 of less than 0.1 µM. The same compound had an EC50 in assay [2] of less than 0.05 µM.

Turning to `Cc1cc2c(cc1F)-c1sc(C(=O)O)cc1CO2`, the IC50 in assay [1] is less than 0.1 µM. This compound displayed an EC50 in assay [2] of less than 0.05 µM.

In the case of `O=C(NCCN1CCCCC1)c1cc2c(s1)-c1ccccc1CC2`, the IC50 in assay [1] is less than 1 µM. The EC50 in assay [2] was less than 1 µM.

As for `O=C(NO)c1cc2c(s1)-c1ccccc1CC2`, in assay [1], the IC50 is less than 0.05 µM. The same compound showed an EC50 in assay [2] of less than 0.05 µM.

In the case of `CCCNC(=O)c1cc2c(s1)-c1ccccc1CC2`, the IC50 in assay [1] was less than 0.1 µM. For the same compound, in assay [2], the EC50 is less than 0.5 µM.

`CCOC(=O)c1cc2c(s1)-c1ccccc1CC2`: the IC50 in assay [1] is less than 2 µM. In assay [2], this compound showed an EC50 of less than 0.05 µM.

For `COC(=O)C1CN(C(=O)c2cc3c(s2)-c2ccc(Cl)c(F)c2OC3)CC1c1ccccc1F` (stereo not shown), in assay [1], the IC50 was less than 0.1 µM. In addition, the EC50 in assay [2] is less than 0.05 µM.

In turn, `CC(C)(C)OC(=O)NCCNC(=O)c1cc2c(s1)-c1ccccc1CC2` yielded an IC50 in assay [1] of less than 2 µM. This compound also had an EC50 in assay [2] of less than 0.05 µM.
